Data from PubChem BioAssay (NCI).
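A five-concentration, 48-hour dose response in 96-well plates underlies each endpoint, interpolated linearly between surrounding concentrations. GI50: concentration for 50% inhibition of growth. TGI: total growth inhibition.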

Legend:
Test in all cases: NCI tumour cell line growth inhibition, 48 h
[1] = system: NCI-H460 lung
[2] = system: OVCAR-8 ovarian
[3] = system: NCI-H522 lung
[4] = system: A498 renal
[5] = system: HL-60(TB) leukemia
[6] = system: UO-31 renal
[7] = system: COLO 205 colon
[8] = system: EKVX NSCLC
[9] = system: NCI/ADR-RES ovarian

**Q.** With `N=S(=O)(c1ccccc1)c1ccccc1` as the molecule, how does the TGI [1] read?
**A.** > 100 µM

**Q.** And the TGI [2]?
**A.** > 100 µM

**Q.** What about the TGI [3] of the same molecule?
**A.** > 100 µM

**Q.** And the TGI [4]?
**A.** > 100 µM

**Q.** And the TGI [5]?
**A.** > 100 µM

**Q.** And the TGI [6]?
**A.** > 100 µM

**Q.** What about the TGI [7] of the same molecule?
**A.** > 100 µM

**Q.** What about the TGI [8] of the same molecule?
**A.** > 100 µM

**Q.** For `O=S(c1ccccc1)C1CC2CC3(CCC21O)OCCO3` (stereo unspecified), which TGI [1] is on record?
**A.** > 100 µM

**Q.** And the TGI [2]?
**A.** > 100 µM

**Q.** And the TGI [3]?
**A.** > 100 µM

**Q.** And the TGI [4]?
**A.** > 100 µM

**Q.** And the TGI [5]?
**A.** > 100 µM

**Q.** And the TGI [6]?
**A.** > 100 µM

**Q.** What about the TGI [7] of the same molecule?
**A.** > 100 µM

**Q.** And the TGI [8]?
**A.** > 100 µM

**Q.** And the TGI [9]?
**A.** > 100 µM

**Q.** Which results are given for `Brc1c2nc3ccccc3nc2n2ccc3ccccc3c12`?
**A.** TGI [1]: > 100 µM; TGI [2]: > 100 µM; TGI [3]: > 100 µM; TGI [5]: > 100 µM; TGI [6]: > 100 µM; TGI [7]: > 100 µM; TGI [8]: > 100 µM

**Q.** For `C[N+](C)=c1ccc2nc3c(ccc4ccccc43)oc-2c1`, which TGI [1] is on record?
**A.** 37.7 µM

**Q.** What about the TGI [2] of the same molecule?
**A.** 26 µM

**Q.** And the TGI [3]?
**A.** 8.07 µM

**Q.** What about the TGI [4] of the same molecule?
**A.** 32.6 µM

**Q.** And the TGI [5]?
**A.** 6.32 µM

**Q.** And the TGI [6]?
**A.** 31.5 µM

**Q.** And the TGI [7]?
**A.** > 57.9 µM

**Q.** And the TGI [8]?
**A.** 37.3 µM

**Q.** What does the source list for `CCCCCCCCCC(O)CC(=O)c1c(O)cccc1O` (stereo unspecified)?
**A.** TGI [2]: 38.6 µM; TGI [3]: 37.9 µM; TGI [4]: 88.5 µM; TGI [5]: 57.3 µM; TGI [6]: 38.6 µM; TGI [7]: 91.7 µM; TGI [8]: 45.5 µM; TGI [9]: 38.5 µM

**Q.** How did the TGI [1] turn out when `N#CNC(=NCc1ccccc1)NCCc1c[nH]c2ccccc12` was run?
**A.** > 100 µM

**Q.** And the TGI [2]?
**A.** > 100 µM

**Q.** What about the TGI [5] of the same molecule?
**A.** > 100 µM

**Q.** And the TGI [6]?
**A.** 86.2 µM

**Q.** And the TGI [7]?
**A.** > 100 µM

**Q.** And the TGI [8]?
**A.** > 100 µM

**Q.** Which TGI [1] does the source give for `Cc1c(-c2coc(-c3ccccc3)n2)c(=O)n(-c2ccccc2)n1C` here?
**A.** > 100 µM

**Q.** What about the TGI [2] of the same molecule?
**A.** > 100 µM

**Q.** What about the TGI [3] of the same molecule?
**A.** > 100 µM

**Q.** What about the TGI [4] of the same molecule?
**A.** > 100 µM

**Q.** And the TGI [5]?
**A.** > 100 µM

**Q.** What about the TGI [6] of the same molecule?
**A.** > 100 µM

**Q.** And the TGI [7]?
**A.** > 100 µM

**Q.** For `C=C1C2C[C@@H]3OC4CC5O[C@]6(CC5OC4C(C)C3OC(=O)CC3CC[C@@H]4OC5C7OC8C[C@](CCC9CC(=C)[C@H](CCC(C[C@H]1C)O2)O9)(OC7C4O3)O[C@@H]85)C[C@@H]1O[C@@]2(CC(C)[C@@H]3OC(CC(=O)CCO)C(O)C[C@@H]3O2)CC(C)[C@@H]1O6` (stereo partly specified), which TGI [1] is on record?
**A.** 1.33 µM

**Q.** What about the TGI [2] of the same molecule?
**A.** 0.0172 µM

**Q.** What about the TGI [3] of the same molecule?
**A.** < 0.001 µM

**Q.** What about the TGI [6] of the same molecule?
**A.** 1.17 µM

**Q.** What about the TGI [7] of the same molecule?
**A.** < 0.001 µM

**Q.** Which TGI [1] does the source give for `O=C(NC12CC3CC(CC(C3)C1)C2)C(=O)c1c[nH]c2ccc(Br)cc12` here?
**A.** 27 µM

**Q.** What about the TGI [2] of the same molecule?
**A.** 87.3 µM

**Q.** And the TGI [3]?
**A.** > 100 µM

**Q.** What about the TGI [5] of the same molecule?
**A.** > 100 µM

**Q.** And the TGI [6]?
**A.** > 100 µM

**Q.** What about the TGI [7] of the same molecule?
**A.** 45.1 µM

**Q.** What about the TGI [8] of the same molecule?
**A.** > 100 µM

**Q.** For `C=CC(C)(C)C1(CC(OC)OC)C(=O)N(C)c2ccccc21` (stereo unspecified), which TGI [1] is on record?
**A.** > 25 µM

**Q.** And the TGI [2]?
**A.** > 25 µM

**Q.** What about the TGI [4] of the same molecule?
**A.** > 25 µM

**Q.** What about the TGI [5] of the same molecule?
**A.** > 25 µM

**Q.** And the TGI [6]?
**A.** > 25 µM

**Q.** What about the TGI [7] of the same molecule?
**A.** > 25 µM

**Q.** And the TGI [8]?
**A.** > 25 µM

**Q.** And the TGI [9]?
**A.** > 25 µM

**Q.** With `CC1(C)Oc2ccc3c(=O)cc(-c4cccs4)oc3c2C1C(=O)O` (stereo unspecified) as the molecule, how does the TGI [2] read?
**A.** > 100 µM

**Q.** And the TGI [3]?
**A.** > 100 µM

**Q.** And the TGI [4]?
**A.** > 100 µM

**Q.** And the TGI [5]?
**A.** > 100 µM

**Q.** What about the TGI [7] of the same molecule?
**A.** > 100 µM

**Q.** What about the TGI [8] of the same molecule?
**A.** > 100 µM

**Q.** What about the TGI [9] of the same molecule?
**A.** > 100 µM

**Q.** With `CO[C@H]1CC[C@]2(C)C3=CC[C@@]4(C)C(CC[C@@H]4C(C)CC[C@@H](C)C(C)C)C(=CCC2C1)O3` (stereo partly specified) as the molecule, how does the TGI [1] read?
**A.** > 25 µM

**Q.** What about the TGI [2] of the same molecule?
**A.** > 25 µM

**Q.** And the TGI [3]?
**A.** > 25 µM

**Q.** What about the TGI [4] of the same molecule?
**A.** > 25 µM

**Q.** What about the TGI [5] of the same molecule?
**A.** > 25 µM

**Q.** What about the TGI [6] of the same molecule?
**A.** > 25 µM

**Q.** And the TGI [7]?
**A.** > 25 µM

**Q.** And the TGI [8]?
**A.** > 25 µM

**Q.** `Cc1c(OCCCOc2ccc3c(=O)cc(-c4ccccc4)oc3c2C)ccc2c(=O)cc(-c3ccccc3)oc12` was tested. Which TGI [1] did it give?
**A.** > 100 µM

**Q.** What about the TGI [2] of the same molecule?
**A.** > 100 µM

**Q.** And the TGI [3]?
**A.** > 100 µM

**Q.** And the TGI [4]?
**A.** > 100 µM

**Q.** What about the TGI [5] of the same molecule?
**A.** > 100 µM

**Q.** What about the TGI [6] of the same molecule?
**A.** > 100 µM

**Q.** What about the TGI [8] of the same molecule?
**A.** > 100 µM

**Q.** With `COC1=CC(=O)C2C(C1=O)[C@@H]1c3ccccc3OC(C)(C)[C@H]21` (stereo partly specified) as the molecule, how does the TGI [1] read?
**A.** > 100 µM

**Q.** And the TGI [2]?
**A.** 42.2 µM

**Q.** And the TGI [3]?
**A.** 27.7 µM

**Q.** What about the TGI [4] of the same molecule?
**A.** > 100 µM

**Q.** What about the TGI [5] of the same molecule?
**A.** 33.8 µM

**Q.** What about the TGI [6] of the same molecule?
**A.** 38.1 µM

**Q.** What about the TGI [7] of the same molecule?
**A.** 35.1 µM

**Q.** And the TGI [8]?
**A.** 88.1 µM

**Q.** Which results are given for `Nc1ncnc2c1sc(=S)n2-c1ccccc1`?
**A.** TGI [1]: > 100 µM; TGI [2]: > 100 µM; TGI [3]: > 100 µM; TGI [4]: > 100 µM; TGI [5]: > 100 µM; TGI [6]: > 100 µM; TGI [7]: > 100 µM; TGI [8]: > 100 µM

**Q.** `COc1cc(N)c2[nH]c3c(C)ccc(C)c3c2c1` was tested. Which TGI [1] did it give?
**A.** > 100 µM

**Q.** What about the TGI [2] of the same molecule?
**A.** > 100 µM

**Q.** What about the TGI [3] of the same molecule?
**A.** > 100 µM

**Q.** And the TGI [5]?
**A.** > 100 µM

**Q.** And the TGI [6]?
**A.** > 100 µM

**Q.** And the TGI [7]?
**A.** > 100 µM

**Q.** And the TGI [8]?
**A.** > 100 µM

**Q.** With `Cc1ccc2n(c1)cc(-c1ccc(/C=N/NC(=N)N/N=C/c3ccc(-c4cn5cc(C)ccc5[n+]4C)cc3)cc1)[n+]2C` as the molecule, how does the TGI [1] read?
**A.** > 100 µM

**Q.** What about the TGI [2] of the same molecule?
**A.** > 100 µM

**Q.** And the TGI [3]?
**A.** > 100 µM

**Q.** What about the TGI [5] of the same molecule?
**A.** > 100 µM

**Q.** And the TGI [6]?
**A.** 44.1 µM

**Q.** What about the TGI [7] of the same molecule?
**A.** > 100 µM

**Q.** What about the TGI [8] of the same molecule?
**A.** > 100 µM

**Q.** And the TGI [9]?
**A.** > 100 µM

**Q.** Which GI50 [1] does the source give for `C=CCNc1nc(O)c(/C=C2\C=Nc3ncccc32)s1` here?
**A.** 2.74 µM

**Q.** And the TGI [1]?
**A.** 9.96 µM

**Q.** And the GI50 [2]?
**A.** 3.41 µM

**Q.** And the TGI [2]?
**A.** 10.3 µM

**Q.** What about the GI50 [3] of the same molecule?
**A.** 0.725 µM

**Q.** What about the TGI [3] of the same molecule?
**A.** 4.85 µM

**Q.** And the GI50 [4]?
**A.** 1.5 µM

**Q.** What about the TGI [4] of the same molecule?
**A.** 3.7 µM

**Q.** What about the GI50 [5] of the same molecule?
**A.** 2.1 µM

**Q.** And the TGI [5]?
**A.** 5.27 µM

**Q.** What about the GI50 [6] of the same molecule?
**A.** 3.36 µM

**Q.** And the TGI [6]?
**A.** > 100 µM

**Q.** What about the GI50 [8] of the same molecule?
**A.** 3.4 µM

**Q.** What about the TGI [8] of the same molecule?
**A.** > 100 µM

**Q.** And the GI50 [9]?
**A.** 5.05 µM

**Q.** What about the TGI [9] of the same molecule?
**A.** > 100 µM

**Q.** How did the TGI [1] turn out when `NC(=O)COc1c(Br)cc(Br)cc1Br` was run?
**A.** > 100 µM

**Q.** What about the TGI [2] of the same molecule?
**A.** > 100 µM

**Q.** What about the TGI [3] of the same molecule?
**A.** > 100 µM

**Q.** And the TGI [6]?
**A.** > 100 µM

**Q.** And the TGI [7]?
**A.** > 100 µM

**Q.** What about the TGI [8] of the same molecule?
**A.** > 100 µM

**Q.** What does the source list for `N=c1n(CC(=O)NC23CC4CC(CC(C4)C2)C3)c2ccccc2n1CC(=O)NC12CC3CC(CC(C3)C1)C2`?
**A.** TGI [1]: 3.17 µM; TGI [2]: 3.13 µM; TGI [3]: 3.3 µM; TGI [4]: 3.15 µM; TGI [5]: 4.82 µM; TGI [6]: 26 µM; TGI [7]: 3.49 µM; TGI [8]: 5.03 µM
